What was measured:
[1] = test system: M. Smegmatis ATCC607; experiment: In-vitro anti-bacterial activity against strain M. smegmatis ATCC607 (growth inhibition, Alamar Blue fluorescence); format: cell-based; conditions: strain ATCC607, 48 hours at 37° C.; for IC50: Mycolicibacterium smegmatis, ATCC607, 48 h, read-out: M. smegmatis pIC50 (converted)
Procedure: D.2. In-Vitro Method for Testing Compounds for Anti-Bacterial Activity Against Strain M. Smegmatis ATCC607 Flat-bottom, sterile 96-well plastic microtiter plates were filled with 180 μl of sterile deionized water, supplemented with 0.25% BSA. […] Serial five-fold dilutions (45 μl in 180 μl) were made directly in the microtiter plates from column 2 to 11 using a customised robot system (Zymark Corp. Hopkinton, Mass.). Pipette tips were changed after every 3 dilutions to minimize pipetting errors with high hydrophobic compounds. […] Approximately 250 CFU per well of bacteria inoculum, in a volume of 100 μl in 2.8× Mueller-Hinton broth medium, was added to the rows […]. The same volume of broth medium without inoculum was added to column 12 in row A to H. The cultures were incubated at 37° C. for 48 hours in a humidified 5% CO2 atmosphere (incubator with open air valve and continuous ventilation). At the end of incubation, two days after inoculation, the bacterial growth was quantitated fluorometrically. Therefore Alamar Blue (10×) was added to all wells in a volume of 20 μl and plates were incubated for another 2 hours at […] The fluorescence was read in a computer-controlled fluorometer (Cytofluor, Biosearch) at an excitation wavelength of 530 nm and an emission wavelength of 590 nm (gain 30). The % growth inhibition achieved by the compounds was calculated according to standard methods. The pIC50 was defined as the 50% inhibitory concentration for bacterial growth.

[2] = test system: Mycobacterium tuberculosis (strain H37RV); experiment: In-vitro testing against M. tuberculosis (growth inhibition, Resazurin fluorescence); format: cell-based; conditions: 168 h, 7 days at 37° C., bacterial growth, read-out: M. tuberculosis pIC50 (converted)

Row | SMILES | melting point | IC50 [1] | M. smegmatis pIC50 [1] | IC50 [2]
1 | CN(C)CC[C@](O)(c1cccc(F)c1)C(Cc1ccccc1)c1ccc2cc(Br)ccc2n1 (stereo partly shown) [Compound 1] | 136 °C | 631 nM |  | 
2 | CCc1cc2ccc([C@H](c3ccccc3)[C@@](O)(CCN(C)C)c3cc(F)cc(F)c3)cc2nc1Cl [Compound 9] |  |  | 5.8 | 
3 | CCc1cc2ccc([C@H](c3ccccc3)[C@@](O)(CCN(C)C)c3cccc4ccccc34)cc2nc1Cl [Compound 8] |  | 1580 nM |  | 
4 | CCc1cc2ccc([C@H](c3ccccc3)[C@@](O)(CCN(C)C)c3cc(F)cc(F)c3)cc2nc1Cl [Compound 10] |  | 1260 nM |  | 7940 nM
5 | CN(C)CC[C@@](O)(c1cccc(F)c1)C(c1ccccc1)c1ccc2cc(Br)ccc2n1 (stereo partly shown) [Compound 6] | 134 °C | 12600 nM |  | 
6 | CCc1cc2cc(C(c3ccccc3)C(O)(CCN(C)C)c3cc(F)cc(F)c3)ccc2nc1Cl (single isomer, unassigned) [Compound 15] |  | 398 nM |  | 10000 nM
7 | CN(C)CC[C@](O)(c1cccc2ccccc12)C(Cc1ccccc1)c1ccc2cc(Br)ccc2n1 (stereo partly shown) [Compound 2] | 143 °C | 316 nM |  | 
8 | CN(C)CC[C@](O)(c1cc(F)cc(F)c1)[C@@H](c1ccccc1)c1cc(Br)cc2c(-c3ccccc3)cc(Cl)nc12 [Compound 11] | 220 °C | 2000 nM |  | 
9 | CN(C)CC[C@@](O)(c1cccc2ccccc12)C(Cc1ccccc1)c1ccc2cc(Br)ccc2n1 (stereo partly shown) [Compound 3] | 69 °C | 2000 nM |  | 

From patent publication US7790894B2, “Mycobacterial inhibitors” (Janssen Pharmaceutica NV, priority 2004, dated 2010)
